From ChEMBL document CHEMBL4414549 (J Med Chem, 2019)

Legend:
[1] = in vivo; details: Sprague-Dawley, rat, iv, 1 mg/kg
[2] = in vivo; details: Sprague-Dawley, rat, po, 5 mg/kg
[3] = in vivo; details: Sprague-Dawley, rat, iv, 1 mg/kg; remark: listed apart in the source
[4] = in vivo; details: Sprague-Dawley, rat, po, 5 mg/kg; remark: listed apart in the source
[5] = in vivo; details: Sprague-Dawley, rat, iv, 1 mg/kg; remark: listed apart in the source
[6] = in vivo; details: Sprague-Dawley, rat, po, 5 mg/kg; remark: listed apart in the source
[7] = in vivo; details: Sprague-Dawley, rat, po, 5 mg/kg; remark: listed apart in the source
[8] = Oral bioavailability in human in fed state at 560 mg administered daily; format: ADME, organism-based; details: in vivo
[9] = Oral bioavailability in human in fasting state at 560 mg administered daily; format: ADME, organism-based; details: in vivo
[10] = Plasma concentration in ICR mouse at […], po administered as single dose measured at 0.5 hrs by LC-MS/MS analysis; format: ADME, organism-based
[11] = Plasma concentration in ICR mouse at 8.9 mg/kg, po administered as single dose measured at 0.5 hrs by LC-MS/MS analysis; format: ADME, organism-based
[12] = Plasma concentration in ICR mouse at 4.4 mg/kg, po administered as single dose measured at 0.5 hrs by LC-MS/MS analysis; format: ADME, organism-based
[13] = Plasma concentration in ICR mouse at 17.7 mg/kg, po administered as single dose measured at 0.5 hrs by LC-MS/MS analysis; format: ADME, organism-based
[14] = Cmax in ICR mouse plasma at 14.5 mg/kg, po administered as single dose by LC-MS/MS analysis; format: ADME, organism-based; parameters: dose 14.5 mg/kg, route oral
[15] = Plasma concentration in ICR mouse at 2.2 mg/kg, po administered as single dose measured at 0.5 hrs by LC-MS/MS analysis; format: ADME, organism-based
[16] = Plasma concentration in ICR mouse at 1.4 mg/kg, po administered as single dose measured at 0.5 hrs by LC-MS/MS analysis; format: ADME, organism-based
[17] = Plasma concentration in ICR mouse at 2.9 mg/kg, po administered as single dose measured at 0.5 hrs by LC-MS/MS analysis; format: ADME, organism-based
[18] = Plasma concentration in ICR mouse at 14.5 mg/kg, po administered as single dose measured at 4 hrs by LC-MS/MS analysis; format: ADME, organism-based
[19] = Plasma concentration in ICR mouse at 0.7 mg/kg, po administered as single dose measured at 0.5 hrs by LC-MS/MS analysis; format: ADME, organism-based
[20] = Plasma concentration in ICR mouse at 14.5 mg/kg, po administered as single dose measured at 2 hrs by LC-MS/MS analysis; format: ADME, organism-based

Compound	half-life [1] [min]	bioavailability [2] [%]	clearance [3] [mL/min/kg]	Tmax [4] [min]	Vd [5] [L/kg]	Cmax [6] [ng/mL]	AUC [7] [ng·h/mL]	bioavailability [8] [%]	bioavailability [9] [%]	concentration at 0.5 h [10] [nM]	concentration at 0.5 h [11] [nM]	concentration at 0.5 h [12] [nM]	concentration at 0.5 h [13] [nM]	Cmax [14] [nM]	concentration at 0.5 h [15] [nM]	concentration at 0.5 h [16] [nM]	concentration at 0.5 h [17] [nM]	concentration at 4 h [18] [nM]	concentration at 0.5 h [19] [nM]	concentration at 2 h [20] [nM]
C=CC(=O)Nc1ccccc1C1CCNc2c(C(N)=O)c(-c3ccc(OCC4CC4)cc3)nn21 (stereo not given)	24	34	82.3	19.8	1.01	202	344	–	–	–	–	–	–	–	–	–	–	–	–	–
C=CC(=O)N1CC(C2CCNc3c(C(N)=O)c(-c4ccc(Oc5ccccc5)cc4)nn32)C1 (stereo not given)	15.6	8.6	169	140	2.85	10.4	50.3	–	–	–	–	–	–	–	–	–	–	–	–	–
C=CC(=O)NCC1CCNc2c(C(N)=O)c(-c3ccc(Oc4ccccc4)cc3)nn21 (stereo not given)	12.6	5.7	93.9	19.8	1.19	19.6	51.1	–	–	–	–	–	–	–	–	–	–	–	–	–
C=CC(=O)N1CCC[C@@H](n2nc(-c3ccc(Oc4ccccc4)cc3)c3c(N)ncnc32)C1 [IBRUTINIB]	–	–	–	–	–	–	–	8.4	3.9	–	–	–	–	–	–	–	–	–	–	–
C=CC(=O)N1CCC([C@@H]2CCNc3c(C(N)=O)c(-c4ccc(Oc5ccccc5)cc4)nn32)CC1 [ZANUBRUTINIB]	–	23.6	76.8	19.8	2.32	235	257	–	–	590	350	180	500	4800	70	110	320	90	40	470
